# In patent US20240309038A1, “NOVEL GALACTOSIDE INHIBITOR OF GALECTINS” (GALECTO BIOTECH AB, priority 2020, published 2024):
# pKd: −log10 of the molar value.
# Biological target: Gal-3 (Homo sapiens, UniProt P17931)
# Assay: Fluorescence anisotropy assay, inhibition of galectin / fluorescein tagged saccharide probe interaction
# Type: binding
# Experimental: The affinity of Example 1-59 for galectins were determined by a fluorescence anisotropy assay where the compound was used as an inhibitor of the interaction between galectin and a fluorescein tagged saccharide probe as described Sörme, P., Kahl-Knutsson, B., Huflejt, M., Nilsson, U. J., and Leffler H. (2004) Fluorescence polarization as an analytical tool to evaluate galectin-ligand interactions. Anal. Biochem. 334: 36-47, (Sarme et al., 2004)
# Chain of Gal-3 (P17931 whole entry, species assumed): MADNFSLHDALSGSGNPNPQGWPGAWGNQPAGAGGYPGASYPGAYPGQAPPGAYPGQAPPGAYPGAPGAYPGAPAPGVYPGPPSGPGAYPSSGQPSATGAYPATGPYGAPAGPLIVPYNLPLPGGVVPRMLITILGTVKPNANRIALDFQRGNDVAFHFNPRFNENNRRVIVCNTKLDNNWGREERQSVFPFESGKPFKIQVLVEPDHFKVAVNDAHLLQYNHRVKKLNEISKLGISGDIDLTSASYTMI
row,pKd,Structure (SMILES)
1,7.80,"Cc1nc([C@@H]2OC(CO)[C@H](O)C(n3cc(-c4cc(F)c(F)c(F)c4)cn3)C2O)n(-c2cc3sc(C)nc3cc2F)n1 (stereo in doubt) [Example 37, 6-{5-{3-Deoxy-3-[4-(3,4,5-trifluorophenyl)-1H-1,2-pyrazol-1-yl]-β-D-galactopyranosyl}-3-methyl-1H-1,2,4-triazol-1-yl}-5-fluoro-2-methylbenzothiazole]"
2,7.60,"Cc1nc([C@@H]2OC(CO)[C@H](O)C(n3cc(-c4cc(F)c(F)c(F)c4)cn3)C2O)n(-c2cncc(Br)c2)n1 (stereo in doubt) [Example 19, 5-Bromo-3-{5-{3-deoxy-3-[4-(3,4,5-trifluorophenyl)-1H-1,2-pyrazol-1-yl]-β-D-galactopyranosyl}-3-methyl-1H-1,2,4-triazol-1-yl}pyridine]"
3,7.41,"Cc1nc2ccc(-n3cnnc3[C@@H]3OC(CO)[C@H](O)C(n4cc(-c5cc(F)c(F)c(F)c5)cn4)[C@@H]3O)cc2s1 (stereo partly drawn) [Example 2, 6-{3-{3-Deoxy-3-[4-(3,4,5-trifluorophenyl)-1H-1,2-pyrazol-1-yl]-β-D-galactopyranosyl}-4H-1,2,4-triazol-4-yl}-2-methylbenzothiazole]"
4,6.68,"Cc1nc([C@@H]2OC(CO)[C@H](O)C(n3cc(-c4cc(F)c(F)c(F)c4)cn3)C2O)n(-c2ccc3nc(C)sc3c2F)n1 (stereo in doubt) [Example 38, 6-{5-{3-Deoxy-3-[4-(3,4,5-trifluorophenyl)-1H-1,2-pyrazol-1-yl]-β-D-galactopyranosyl}-3-methyl-1H-1,2,4-triazol-1-yl}-7-fluoro-2-methylbenzothiazole]"
5,6.64,"Cc1nc([C@@H]2OC(CO)[C@H](O)C(n3cc(-c4cc(F)c(F)c(F)c4)cn3)C2O)n(-c2ccc3nc(C(F)(F)F)sc3c2)n1 (stereo in doubt) [Example 36, 6-{5-{3-Deoxy-3-[4-(3,4,5-trifluorophenyl)-1H-1,2-pyrazol-1-yl]-β-D-galactopyranosyl}-3-methyl-1H-1,2,4-triazol-1-yl}-2-(trifluoromethyl)benzothiazole]"

# Continued, molecule first:
row,Structure (SMILES),pKd
1,"Cc1nc([C@@H]2OC(CO)[C@H](O)C(n3cc(-c4cccc(Cl)c4)cn3)C2O)n(-c2cc(Cl)ccc2C(F)(F)F)n1 (stereo in doubt) [Example 58, 1-{5-{3-[4-(3-Chlorophenyl)-1H-1,2-pyrazol-1-yl]-3-deoxy-β-D-galactopyranosyl}-3-methyl-1H-1,2,4-triazol-1-yl}-5-chloro-2-(trifluoromethyl)benzene]",7.01
2,"Cc1nc([C@@H]2OC(CO)[C@H](O)C(n3cc(-c4cc(F)c(F)c(F)c4)c(-c4ccc(F)cc4)n3)C2O)n(-c2cc(Cl)ccc2C(F)(F)F)n1 (stereo in doubt) [Example 55, 5-Chloro-1-{5-{3-deoxy-3-[4-(3,4,5-trifluorophenyl)-3-(4-fluorophenyl)-1H-1,2-pyrazol-1-yl]-β-D-galactopyranosyl}-3-methyl-1H-1,2,4-triazol-1-yl}-2-(trifluoromethyl)benzene]",7.00
3,"Cc1nc([C@@H]2OC(CO)[C@H](O)C(n3cc(-c4cc(F)c(C)cn4)cn3)C2O)n(-c2cc(Cl)ccc2C(F)(F)F)n1 (stereo in doubt) [Example 15, 5-Chloro-1-{5-{3-deoxy-3-[4-(4-fluoro-5-methylpyridin-2-yl)-1H-1,2-pyrazol-1-yl]-β-D-galactopyranosyl}-3-methyl-1H-1,2,4-triazol-1-yl}-2-(trifluoromethyl)benzene]",7.89
4,"C#CCc1c(F)cc(-c2cnn(C3C(O)[C@H](c4nc(C)nn4-c4cc(Cl)ccc4C(F)(F)F)OC(CO)[C@@H]3O)c2)cc1F (stereo in doubt) [Example 18, 5-Chloro-1-{5-{3-deoxy-3-{4-[3,5-difluoro-4-(2-propyn-1-yl)phenyl]-1H-1,2-pyrazol-1-yl}-β-D-galactopyranosyl}-3-methyl-1H-1,2,4-triazol-1-yl}-2-(trifluoromethyl)benzene]",7.59
5,"Cc1nnc([C@@H]2OC(CO)[C@H](O)C(n3cc(-c4cc(F)c(Cl)c(F)c4)cn3)C2O)n1-c1cc(Cl)ccc1C(F)(F)F (single isomer, unassigned) [Example 10, 1-{3-{3-[4-(4-Chloro-3,5-difluorophenyl)-1H-1,2-pyrazol-1-yl]-3-deoxy-β-D-galactopyranosyl}-5-methyl-4H-1,2,4-triazol-4-yl}-5-chloro-2-(trifluoromethyl)benzene]",6.43
6,"Cc1nc([C@@H]2OC(CO)[C@H](O)C(n3cc(-c4cc(F)c(F)c(F)c4)cn3)C2O)n(-c2cc3sc(C)nc3cc2C#N)n1 (stereo in doubt) [Example 44, 5-Cyano-6-{5-{3-deoxy-3-[4-(3,4,5-trifluorophenyl)-1H-1,2-pyrazol-1-yl]-β-D-galactopyranosyl}-3-methyl-1H-1,2,4-triazol-1-yl}-2-methylbenzothiazole]",7.77
7,"C#Cc1c(F)cc(-c2cnn(C3C(O)[C@H](c4nc(C)nn4-c4cc(Cl)ccc4C(F)(F)F)OC(CO)[C@@H]3O)c2)cc1F (stereo in doubt) [Example 17, 5-Chloro-1-{5-{3-deoxy-3-[4-(4-ethynyl-3,5-difluorophenyl)-1H-1,2-pyrazol-1-yl]-β-D-galactopyranosyl}-3-methyl-1H-1,2,4-triazol-1-yl}-2-(trifluoromethyl)benzene]",7.22
8,"Cc1nc([C@@H]2OC(CO)[C@H](O)C(n3cc(-c4cc(F)c(F)c(F)c4)c(C)n3)C2O)n(-c2cc(Cl)ccc2C(F)(F)F)n1 (stereo in doubt) [Example 49, 5-Chloro-1-{5-{3-deoxy-3-[4-(3,4,5-trifluorophenyl)-3-methyl-1H-1,2-pyrazol-1-yl]-β-D-galactopyranosyl}-3-methyl-1H-1,2,4-triazol-1-yl}-2-(trifluoromethyl)benzene]",7.89
9,"Cc1nc([C@@H]2OC(CO)[C@H](O)C(n3cc(-c4cc(F)c(F)c(F)c4)c(C#N)n3)C2O)n(-c2cc(Cl)ccc2C(F)(F)F)n1 (stereo in doubt) [Example 51, 5-Chloro-1-{5-{3-[3-cyano-4-(3,4,5-trifluorophenyl)-1H-1,2-pyrazol-1-yl]-3-deoxy-β-D-galactopyranosyl}-3-methyl-1H-1,2,4-triazol-1-yl}-2-(trifluoromethyl)benzene]",7.82
10,"Cc1nc([C@@H]2OC(CO)[C@H](O)C(n3cc(-c4cc(F)c(Cl)c(F)c4)cn3)C2O)n(-c2cc(Cl)cnc2C(F)(F)F)n1 (stereo in doubt) [Example 28, 3-{5-{3-[4-(4-Chloro-3,5-difluorophenyl)-1H-1,2-pyrazol-1-yl]-3-deoxy-β-D-galactopyranosyl}-3-methyl-1H-1,2,4-triazol-1-yl}-5-chloro-2-(trifluoromethyl)pyridine]",7.82
11,"Cc1nc([C@@H]2OC(CO)[C@H](O)C(n3cc(-c4cc(F)c(F)c(F)c4)c(-c4ccccc4F)n3)C2O)n(-c2cc(Cl)ccc2C(F)(F)F)n1 (stereo in doubt) [Example 48, 5-Chloro-1-{5-{3-deoxy-3-[4-(3,4,5-trifluorophenyl)-3-(2-fluorophenyl)-1H-1,2-pyrazol-1-yl]-β-D-galactopyranosyl}-3-methyl-1H-1,2,4-triazol-1-yl}-2-(trifluoromethyl)benzene]",7.27
